Legend:
4T1 cells [1] = test: In vivo inhibition of breast tumor growth (4T1 breast cancer model); conditions: BALB/c mice injected with 4T1 cells, treated every three days; compared with saline control; FIG. 8
Experimental: To evaluate the efficacy of diMT-OXA(IV)-PEG 2000 nanoconjugate in inhibiting tumor growth in vivo, a model of animal with breast cancer was established. 4T1 cells were injected intravenously in BALB/c mice. 4T1 cells spontaneously generate tumors in BALB/c mice, and the characteristics of these tumors are very similar to breast cancer in humans. The BALB/c mice injected with 4T1 cells were treated every three days with free OXA, free 1-MT, free 1-MT plus OXA, and diMT-OXA(IV)-PEG 2000 nanoconjugate, and were treated with saline as control. After the course of treatment, tumor masses were collected from the experimental mice to measure tumor volume to assess general anti-tumor effects (see […]). It can be learned from FIG. 8 that the tumor volume is reduced in mice treated with free OXA, free 1-MT, and free 1-MT plus OXA, and the tumor volume is reduced in mice treated with diMT-OXA(IV)-PEG 2000 nanoconjugate to more than about 50% of that in mice treated with saline as control.

4T1 cells [2] = test: In vitro anti-tumor viability test (CCK-8); assay type: cell-based; conditions: different concentrations, 48 h, CCK-8, absorbance at 450 nm; FIG. 10
Experimental: 4T1 cells were incubated in a 96-well plate (8000 cells/well) with a volume of 100 μL per well. After the incubation, the 96-well plate was placed in an incubator to culture at 37° C. under 5% CO2 overnight. 100 μL of free OXA and diMT-OXA(IV)-PEG 2000 nanoconjugate (in different concentrations) were added. After culture in the incubator at 37° C. under 5% CO2 for 48 h, 10 μL of CCK-8 solution was added into each well and then cultured in the incubator at 37° C. under 5% CO2 for 2 h. The absorbance was measured at 450 nm by an ELISA reader, and the cell viability was calculated.

Row | SMILES | tumor volume (4T1 cells [1]) | inhibitory effect on the proliferation of 4T1 cells (cell viability) (4T1 cells [2])
1 | Cn1cc(C[C@@H](N)C(=O)O)c2ccccc21 [free 1-MT, 1-methyl-D-tryptophan] | reduced | –
2 | O=C1[O][Pt]2([NH][C@@H]3CCCC[C@H]3[NH]2)[O]C1=O [free OXA, oxaliplatin] | reduced | good inhibitory effect
